Experiments:
[1] = tested on: collagen hydrogel (Type I, rat-tail); test: Step-strain rheological measurement, self-healing of collagen hydrogel
Procedure: Another important feature of the dynamic ECMs is their self-healing property, which can be tested using a step-strain rheological measurement. A strong strain is applied to liquify the materials, and the recovery of storage modulus is followed (self-healing) (Fig. 1b). Collagen hydrogel can only partially recover its storage modulus after the first cycle. The rate and extent of recovery were unchanged over the following cycles.
(§1) To minimize sample evaporation at 37 °C, a tissue paper wet in HEPEs buffer (10 mM, pH 7.8) was placed inside the H-PTD chamber to increase the humidity. […] The cone and plate were treated with plasma for 5 min to increase the hydrophilicity of the metal surface.

fibrin hydrogel = test: Stiffness (storage modulus) of fibrin gel by rheometer; conditions: for Storage Modulus Mean: fibrin gel
Procedure: as §1
Fibrin gel: Fibrinogen (Shanghai Laishi Xuezhipin Limited Company) was dissolved in PBS with a concentration of 22.2 mg mL^−1 overnight at room temperature with gentle shaking and aliquoted in protein low-binding tubes (45 µL per tube). […] Fifty microliters of thrombin (4 EU mL^−1 in PBS with 1.8 mM CaCl2) was added and pipetted up and down ten times. Then, it was transferred to the rheometer plate for measurement. […] For each condition, two independent experiments were performed (Fig. 1a and Supplementary Fig. 1).

“CypA: recombinant cyclophilin A, a PPIase, expressed in E. coli” was tested, and the “stiffness and extent of recovery in the self-healing process of collagen hydrogel” value [1] was “remarkably enhanced”, the “effect on storage modulus of fibrin hydrogel” value (fibrin hydrogel; 1 µM CypA) was “remarkably enhanced” and the “Storage Modulus Mean” value (fibrin hydrogel; 1 micromolar CypA, 3 min) was 56.652 Pa. The “Storage Modulus Mean” value (fibrin hydrogel; 1 micromolar CypA, 3.5 min) was 58.3965 Pa, the “Storage Modulus Mean” value (fibrin hydrogel; 1 micromolar CypA, 4 min) was 59.006 Pa and the “Storage Modulus Mean” value (fibrin hydrogel; 1 micromolar CypA, 4.5 min) was 60.5775 Pa. For the same substance, the “Storage Modulus Mean” value (fibrin hydrogel; 1 micromolar CypA, 5 min) was 62.605 Pa, the “Storage Modulus Mean” value (fibrin hydrogel; 1 micromolar CypA, 6 min) was 64.745 Pa and the “Storage Modulus Mean” value (fibrin hydrogel; 1 micromolar CypA, 6.5 min) was 65.763 Pa. The “Storage Modulus Mean” value (fibrin hydrogel; 1 micromolar CypA, 7 min) was 66.7405 Pa, the “Storage Modulus Mean” value (fibrin hydrogel; 1 micromolar CypA, 7.5 min) was 67.652 Pa and the “Storage Modulus Mean” value (fibrin hydrogel; 1 micromolar CypA, 8 min) was 68.8195 Pa. The “Storage Modulus Mean” value (fibrin hydrogel; 1 micromolar CypA, 8.5 min) was 69.705 Pa, the “Storage Modulus Mean” value (fibrin hydrogel; 1 micromolar CypA, 9 min) was 70.143 Pa and the “Storage Modulus Mean” value (fibrin hydrogel; 1 micromolar CypA, 9.5 min) was 71.2125 Pa. The “Storage Modulus Mean” value (fibrin hydrogel; 1 micromolar CypA, 10 min) was 72.402 Pa, the “Storage Modulus Mean” value (fibrin hydrogel; 1 micromolar CypA, 11 min) was 74.113 Pa and the “Storage Modulus Mean” value (fibrin hydrogel; 1 micromolar CypA, 12 min) was 75.428 Pa. For the same substance, the “Storage Modulus Mean” value (fibrin hydrogel; 1 micromolar CypA, 12.5 min) was 75.9135 Pa, the “Storage Modulus Mean” value (fibrin hydrogel; 1 micromolar CypA, 13 min) was 76.613 Pa and the “Storage Modulus Mean” value (fibrin hydrogel; 1 micromolar CypA, 14 min) was 77.9915 Pa. For the same substance, the “Storage Modulus Mean” value (fibrin hydrogel; 1 micromolar CypA, 15 min) was 78.877 Pa, the “Storage Modulus Mean” value (fibrin hydrogel; 3 micromolar CypA, 3 min) was 56.9022 Pa and the “Storage Modulus Mean” value (fibrin hydrogel; 3 micromolar CypA, 3.5 min) was 58.8285 Pa. The “Storage Modulus Mean” value (fibrin hydrogel; 3 micromolar CypA, 4 min) was 60.4529 Pa, the “Storage Modulus Mean” value (fibrin hydrogel; 3 micromolar CypA, 5 min) was 63.4816 Pa and the “Storage Modulus Mean” value (fibrin hydrogel; 3 micromolar CypA, 6 min) was 65.1141 Pa. The “Storage Modulus Mean” value (fibrin hydrogel; 3 micromolar CypA, 6.5 min) was 66.9921 Pa, the “Storage Modulus Mean” value (fibrin hydrogel; 3 micromolar CypA, 7 min) was 68.0463 Pa and the “Storage Modulus Mean” value (fibrin hydrogel; 3 micromolar CypA, 7.5 min) was 69.6441 Pa. The “Storage Modulus Mean” value (fibrin hydrogel; 3 micromolar CypA, 8 min) was 70.5045 Pa, the “Storage Modulus Mean” value (fibrin hydrogel; 3 micromolar CypA, 8.5 min) was 71.5921 Pa and the “Storage Modulus Mean” value (fibrin hydrogel; 3 micromolar CypA, 9 min) was 72.9987 Pa. For the same substance, the “Storage Modulus Mean” value (fibrin hydrogel; 3 micromolar CypA, 9.5 min) was 73.9279 Pa, the “Storage Modulus Mean” value (fibrin hydrogel; 3 micromolar CypA, 10 min) was 75.4268 Pa and the “Storage Modulus Mean” value (fibrin hydrogel; 3 micromolar CypA, 11 min) was 76.965 Pa. For the same substance, the “Storage Modulus Mean” value (fibrin hydrogel; 3 micromolar CypA, 12 min) was 78.6581 Pa, the “Storage Modulus Mean” value (fibrin hydrogel; 3 micromolar CypA, 12.5 min) was 79.6539 Pa and the “Storage Modulus Mean” value (fibrin hydrogel; 3 micromolar CypA, 13 min) was 80.8472 Pa. The “Storage Modulus Mean” value (fibrin hydrogel; 3 micromolar CypA, 14 min) was 81.859 Pa, the “Storage Modulus Mean” value (fibrin hydrogel; 3 micromolar CypA, 15 min) was 84.0373 Pa and the “Storage Modulus Mean” value (fibrin hydrogel; 9 micromolar CypA, 3 min) was 62.185 Pa. For the same substance, the “Storage Modulus Mean” value (fibrin hydrogel; 9 micromolar CypA, 3.5 min) was 63.846 Pa, the “Storage Modulus Mean” value (fibrin hydrogel; 9 micromolar CypA, 4 min) was 65.982 Pa and the “Storage Modulus Mean” value (fibrin hydrogel; 9 micromolar CypA, 4.5 min) was 68.114 Pa. For the same substance, the “Storage Modulus Mean” value (fibrin hydrogel; 9 micromolar CypA, 5 min) was 69.837 Pa, the “Storage Modulus Mean” value (fibrin hydrogel; 9 micromolar CypA, 6 min) was 72.811 Pa and the “Storage Modulus Mean” value (fibrin hydrogel; 9 micromolar CypA, 6.5 min) was 74.461 Pa. For the same substance, the “Storage Modulus Mean” value (fibrin hydrogel; 9 micromolar CypA, 7 min) was 75.619 Pa, the “Storage Modulus Mean” value (fibrin hydrogel; 9 micromolar CypA, 7.5 min) was 77.1405 Pa and the “Storage Modulus Mean” value (fibrin hydrogel; 9 micromolar CypA, 8 min) was 78.5045 Pa. For the same substance, the “Storage Modulus Mean” value (fibrin hydrogel; 9 micromolar CypA, 8.5 min) was 79.81 Pa, the “Storage Modulus Mean” value (fibrin hydrogel; 9 micromolar CypA, 9 min) was 80.8145 Pa and the “Storage Modulus Mean” value (fibrin hydrogel; 9 micromolar CypA, 9.5 min) was 82.609 Pa. For the same substance, the “Storage Modulus Mean” value (fibrin hydrogel; 9 micromolar CypA, 10 min) was 83.584 Pa, the “Storage Modulus Mean” value (fibrin hydrogel; 9 micromolar CypA, 11 min) was 86.0735 Pa and the “Storage Modulus Mean” value (fibrin hydrogel; 9 micromolar CypA, 12 min) was 88.4775 Pa. The “Storage Modulus Mean” value (fibrin hydrogel; 9 micromolar CypA, 12.5 min) was 89.3905 Pa, the “Storage Modulus Mean” value (fibrin hydrogel; 9 micromolar CypA, 13 min) was 90.5025 Pa and the “Storage Modulus Mean” value (fibrin hydrogel; 9 micromolar CypA, 14 min) was 91.758 Pa. For the same substance, the “Storage Modulus Mean” value (fibrin hydrogel; 9 micromolar CypA, 15 min) was 94.897 Pa, the “Storage Modulus Mean” value (fibrin hydrogel; 9 micromolar CypA, 15.5 min) was 96.242 Pa and the “Storage Modulus Mean” value (fibrin hydrogel; 20 micromolar CypA, 3 min) was 48.845 Pa. For the same substance, the “Storage Modulus Mean” value (fibrin hydrogel; 20 micromolar CypA, 3.5 min) was 49.5435 Pa, the “Storage Modulus Mean” value (fibrin hydrogel; 20 micromolar CypA, 4 min) was 50.3955 Pa and the “Storage Modulus Mean” value (fibrin hydrogel; 20 micromolar CypA, 4.5 min) was 50.963 Pa. For the same substance, the “Storage Modulus Mean” value (fibrin hydrogel; 20 micromolar CypA, 5 min) was 51.714 Pa, the “Storage Modulus Mean” value (fibrin hydrogel; 20 micromolar CypA, 6 min) was 52.522 Pa and the “Storage Modulus Mean” value (fibrin hydrogel; 20 micromolar CypA, 6.5 min) was 53.309 Pa. The “Storage Modulus Mean” value (fibrin hydrogel; 20 micromolar CypA, 7 min) was 53.9025 Pa, the “Storage Modulus Mean” value (fibrin hydrogel; 20 micromolar CypA, 7.5 min) was 54.3695 Pa and the “Storage Modulus Mean” value (fibrin hydrogel; 20 micromolar CypA, 8 min) was 54.713 Pa. The “Storage Modulus Mean” value (fibrin hydrogel; 20 micromolar CypA, 8.5 min) was 55.308 Pa, the “Storage Modulus Mean” value (fibrin hydrogel; 20 micromolar CypA, 9 min) was 55.0885 Pa and the “Storage Modulus Mean” value (fibrin hydrogel; 20 micromolar CypA, 9.5 min) was 56.131 Pa. For the same substance, the “Storage Modulus Mean” value (fibrin hydrogel; 20 micromolar CypA, 10 min) was 56.586 Pa, the “Storage Modulus Mean” value (fibrin hydrogel; 20 micromolar CypA, 11 min) was 57.3845 Pa and the “Storage Modulus Mean” value (fibrin hydrogel; 20 micromolar CypA, 12 min) was 58.3285 Pa. The “Storage Modulus Mean” value (fibrin hydrogel; 20 micromolar CypA, 12.5 min) was 58.642 Pa, the “Storage Modulus Mean” value (fibrin hydrogel; 20 micromolar CypA, 14 min) was 59.019 Pa and the “Storage Modulus Mean” value (fibrin hydrogel; 20 micromolar CypA, 15 min) was 59.9075 Pa. For the same substance, the “Storage Modulus Mean” value (fibrin hydrogel; 20 micromolar CypA, 15.5 min) was 60.0285 Pa.

Source: article PMC6370856, “Peptidyl prolyl cis/trans isomerase activity on the cell surface correlates with extracellular matrix development” (Communications Biology, 2019)
